Test [1] has as its target T1, HDAC6 ZnF-UBP binding domain (ZnF-UBP^WT peptide, HDAC6^1109-1215) (Homo sapiens, UniProt Q9UBN7).
T1 construct: methods b47 print 1190-1215, apparently a misprint), expressed in E. coli BL21 Star (DE3), HisTrap purified
T1 sequence (Q9UBN7 1109-1215): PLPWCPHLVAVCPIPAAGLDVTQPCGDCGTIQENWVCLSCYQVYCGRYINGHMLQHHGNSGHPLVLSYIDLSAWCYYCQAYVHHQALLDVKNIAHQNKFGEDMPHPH
As to the kind of experiment: fluorescence polarization displacement of FITC-RLRGG. An excerpt: fluorescence polarization displacement of FITC-RLRGG on HDAC6 ZnF-UBP binding domain (ZnF-UBP^WT peptide, HDAC6^1109-1215)
For orientation: In fluorescence polarisation assays a small probe gives low polarisation when free and higher when bound to something large.

The target in test [2] is T2, ubiquitin C-terminal pentapeptide RLRGG (Homo sapiens, also: FITC label, site not given here).
T2 chain: RLRGG
As to the kind of experiment: fluorescence polarization.

The source of these data is article PMC12000391, “Selective molecular inhibition of the HDAC6 ZnF-UBP binding domain impairs multiple myeloma cell function” (Cell Death Discovery, 2025).

Ends that are not written are not given here.

The IC50 is the concentration that gives 50% inhibition. Low values mean inhibition by little substance, high ones a need for much substance. Turning to `Cn1c(CCC(=O)O)nc2cc(Cl)ccc2c1=O` [1e, Quinazolinone 1e], in test [1], the half-maximal inhibitory concentration (IC50) came out at 1.9 ± 0.1 µM.

Turning to `Cn1c(CCC(=O)O)nc2ccccc2c1=O` [1a, quinazolinone 1a], the IC50 in test [1] came to 2.7 ± 0.3 µM. The IC50 values of the last two molecules are within 1.5-fold of each other.

Take `Cn1c(CCC(=O)O)nc2cc([N+](=O)[O-])ccc2c1=O` [1f, Quinazolinone 1 f]: the IC50 in test [1] amounted to 2.3 ± 0.2 µM.

The molecule `Cc1ccc2nc(CCC(=O)O)n(C)c(=O)c2c1` [1d, Quinazolinone 1 d] came in with an IC50 in test [1] of 13.6 ± 1 µM.

In turn, `Cc1ccc2c(=O)n(C)c(CCC(=O)O)nc2c1` [1g, Quinazolinone 1 g] displayed an IC50 in test [1] of 2.1 ± 0.1 µM.

`COc1ccc2nc(CCC(=O)O)n(C)c(=O)c2c1` [1c, Quinazolinone 1c] had an IC50 in test [1] of 2.1 ± 0.5 µM.

In the case of `Cn1c(CCC(=O)O)nc2ccc(Cl)cc2c1=O` [1b, Quinazolinone 1b], the IC50 in test [1] is 1.9 ± 0.2 µM.

B1: HDAC6 ZnF-UBP 1109-1215 (protein)
chain: T1 sequence (Q9UBN7 1109-1215)
The term Kd denotes the constant that tells how readily two partners part at equilibrium. A higher Kd goes with weaker binding. In test [2], B1 had a Kd of 680 nM.
